Consider two compounds from ChEMBL document CHEMBL1212693, “Dorsomorphin inhibits BMP signals required for embryogenesis and iron metabolism” (Nat Chem Biol, 2008).

Calls of active or inactive are those of the source. The rule behind the calls is not given here.

The species entered for data set [1] is Danio rerio. The data set is described as follows: Inhibition of AMPK in zebrafish assessed as embryonic axis dorsalization at 400 uM treated at 3 hrs post-fertilization measured at 48 hrs. Further details: scale not given: the % may be the effect or the level left.
Data set [2] is filed under the species Danio rerio. The data set is described as follows: Inhibition of AMPK in zebrafish assessed as embryonic axis dorsalization at 40 uM treated at 3 hrs post-fertilization measured at 48 hrs. Further details: scale not given: the % may be the effect or the level left.
Data set [3] is filed under the species Danio rerio. Kind of data set: Inhibition of AMPK in zebrafish assessed as embryonic axis dorsalization at 100 uM treated at 3 hrs post-fertilization measured at 48 hrs. Also on record: scale not given: the % may be the effect or the level left.
The species entered for data set [4] is Danio rerio. The data set is described as follows: Inhibition of AMPK in zebrafish assessed as embryonic axis dorsalization at 200 uM treated at 3 hrs post-fertilization measured at 48 hrs. Further details: scale not given: the % may be the effect or the level left.
The species named for data set [5] is Danio rerio. Kind of data set: Toxicity in zebrafish assessed as survivability at 4 to 400 uM treated at 3 hrs post-fertilization measured at 48 hrs. The data set is classed as organism-based. The conditions noted are these: in vivo.
The species named for data set [6] is Danio rerio. Kind of data set: Inhibition of AMPK in zebrafish assessed as embryonic axis dorsalization at 20 uM treated at 3 hrs post-fertilization measured at 48 hrs. Further details: scale not given: the % may be the effect or the level left.
Data set [7] is filed under the species Danio rerio. The data set is described as follows: Inhibition of AMPK in zebrafish assessed as embryonic axis dorsalization at 4 uM treated at 3 hrs post-fertilization measured at 48 hrs. Also on record: scale not given: the % may be the effect or the level left.
The test system of another data set is Hep 3B2. Kind of data set: Inhibition of hepcidin mRNA expression in human Hep3B cells at 250 uM after 30 mins by qRT-PCR analysis. The data set is classed as functional. The conditions noted are these: 0.5 h. A general note: Quantitative PCR measures a nucleic acid by following its amplification.
Data set [8] concerns the target AMP-activated protein kinase, AMPK (Homo sapiens) (UniProt P54646+O43741+P54619+Q9UGJ0+Q9Y478+Q13131+Q9UGI9). Kind of data set: Inhibition of AMPK-mediated hepcidin mRNA expression in BMP2-stimulated human Hep3B cells at 250 uM treated 30 mins before BMP2 challenge measured after 16 hrs by qRT-PCR analysis. The data set is classed as cell-based. The conditions noted are these: Hep 3B2.

As for `C=C1C(=O)O[C@H](CCCCCCCC)[C@H]1C(=O)O`, the Activity in the data set listed under Danio rerio [1] is 0%; in the data set listed under Danio rerio [2], 0%; in the data set listed under Danio rerio [3], 0%; in the data set filed under Danio rerio [4], 0%; in the data set filed under Danio rerio [5], “Toxic”; in the data set filed under Danio rerio [6] it was 0%. The Activity in the data set filed under Danio rerio [7] came to 0%.

By inhibition is commonly meant the change of the read-out against control, counted positive when it falls. `Nc1ncnc2c1ncn2[C@@H]1O[C@H](CO)[C@@H](O)[C@@H]1O` [VIDARABINE]: the inhibition at 250 µM with Hep 3B2 came to 40%. Also, the inhibition entry in data set [8] is “inactive”.
